Patent US9814697B2, “Composition for nonalcoholic fatty liver disease (NAFLD)” (Cadila Healthcare Limited, priority 2013, dated 2017)

Experiments:
[1] = test system: subjects with biopsy proven NASH; test: Prospective, multi-centric, open-label, single arm study in Non-alcoholic steatohepatitis: efficacy parameters; format: in vivo, human
Description: (§1) Title of the Study—“A prospective, multi-centric, open-label, single arm study to evaluate the safety and efficacy of 4 mg of magnesium salt of compound of formula (I) wherein R is -SMe in a pharmaceutical composition as described above in Non-alcoholic steatohepatitis.”
(§2) To evaluate the safety and efficacy of 4 mg of magnesium salt of compound of formula (I) wherein R is -SMe in Non-alcoholic steatohepatitis (NASH).
(§3) • Primary Efficacy (Time Frame 6 and 12 Weeks): • 1. Change in alanine aminotransferase (ALT) from baseline • Secondary Efficacy (Time Frame 6 and 12 Weeks): • Sustained reduction in ALT level. • C-peptide test for homeostasis model assessment (HOMA) beta and HOMA IR • Triglyceride (TG) Criteria for Safety: • 1. General and Systemic Clinical Examination: Cardiovascular system (CVS), respiratory system (RS), gastro-intestinal system (GIS), central nervous system (CNS) etc. • 2. Laboratory Investigations: Complete blood count (CBC), aspartate aminotransferase(AST), ALT, alkaline phosphatase (ALP), serum bilirubin, γ-glutamyl transpeptidase (GGT), Serum proteins, blood urea nitrogen (BUN), Serum creatinine, creatinine phosphokinase (CPK), fasting plasma glucose (FPG). • 3. Frequency and severity of adverse events (AEs) for all subjects enrolled were recorded. All AEs, were classified using • causality • severity • seriousness Methodology:
(§4) It is an interventional, single arm, safety and efficacy study to explore effect of magnesium salt of compound of formula (I) wherein R is -SMe suitably formulated as described above, on NASH.
Subjects was diagnosed by biopsy as suffering from NASH in last one year and willing to participate in study were invited for screening programme for inclusion in the study.
(§5) All subjects were given suitable formulation of magnesium salt of compound of formula (I) wherein R is -SMe 4 mg for 12 weeks. Lifestyle modification was continued as before the study. Patient was monitored for safety and efficacy of magnesium salt of compound of formula (I) wherein R is -SMe.
(§6) After Clinical evaluations, all baseline safety and efficacy parameters were recorded as per Table (I) given below. All laboratory investigations were carried out after overnight fasting.
(§7) Safety and efficacy parameters were assessed as per Table (I) given below.
Subjects were clinically examined and safety and efficacy parameters were assessed as per Table (I) given below. […]

[2] = test system: subjects with biopsy proven NASH; test: Prospective, multi-centric, open-label, single arm study in Non-alcoholic steatohepatitis: safety and tolerability; format: in vivo, human
Description: as §1, §2, §3, §4, §5, §6
Subjects were clinically examined and given the study medications for four weeks and also safety parameters were assessed as per Table (I)given below.
as §7
Subjects were clinically examined and safety and efficacy parameters were assessed as per Table (I) given below.
If further investigations are required in case of any AE, investigator will be advised to assess the AE and take necessary action, if required. Subjects will be advised to contact the investigator for any complaints within next two weeks. […]

[3] = 4 mg, Safety Population, at Week 3 and at Week 4 (so in the source), FIG. 2
[4] = 4 mg, at 6 and 12 weeks, PP analysis, FIG. 3
[5] = 4 mg, during the study, mild, none considered clinically significant by the investigator

CCO[C@@H](Cc1ccc(OCCn2c(C)ccc2-c2ccc(SC)cc2)cc1)C(=O)[O-].CCO[C@@H](Cc1ccc(OCCn2c(C)ccc2-c2ccc(SC)cc2)cc1)C(=O)[O-].[Mg+2]
Change in ALT levels from baseline ([1]; 4 mg for 12 weeks, NASH patients, PP population, visit 3 (week 6) and visit 4 (week 12), FIG. 1): statistically significant reduction
Patients with sustained reduction in ALT levels ([1]; 4 mg, PP population, visit 3 (week 6)): 63.16 % of patients
Patients with sustained reduction in ALT levels ([1]; 4 mg, PP population, visit 4 (week 12)): 78.95 % of patients
Change in Aspartate Transaminase [1, 3]: statistical significant decrease
Change in alkaline phosphatase [1, 3]: statistical significant decrease
Change in gamma-glutamyl transpeptidase [1, 3]: statistical significant decrease
Change in C peptide levels [1, 4]: non-significant change
Change in HOMA-Beta cell function [1, 4]: non-statistically significant reduction
Change in HOMA-Insulin Resistance [1, 4]: non-statistically significant reduction
Decrease in triglyceride as compared to baseline ([1]; 4 mg, patients with baseline TG<150 mg/dl, week 12, PP population, FIG. 4): not statistically significant
Decrease in serum triglycerides as compared to baseline ([1]; 4 mg, patients with baseline TG≧150 mg/dl, week 6 and 12, PP population, FIG. 4): not statistically significant
Overall safety and tolerability ([2]; 4 mg for 12 weeks, NASH patients): safe and well tolerated
Changes from baseline in various laboratory parameters ([2]; 4 mg treatment arm): no persistent changes from baseline
Deaths or SAEs reported ([2]; 4 mg treatment arm): no deaths or SAEs
Overall incidence of AEs ([2]; 4 mg treatment arm): Nil
Change in weight compared to baseline ([2]; 4 mg, NASH patients, visit 2, 3 and 4): no significant change in weight
Events of raised CPK value [2, 5]: five
Events of raised creatinine [2, 5]: Few events
